# Experimental data: patent US6852696B2, “Inhibitors of glycosaminoglycans” (The University of Texas System, priority 1999, dated 2005)
# Entries after “also recorded” stand apart in the source; their conditions may differ.
# Assays:
# Langerhans cells (LC) = assay: DNFB-induced LC maturation (CD86 expression by IA+ epidermal cells); type: in vivo, BALB/c mice; conditions: two local injections, 40 μg/injection/ear, 24 and 3 hours before DNFB
# Excerpt: FIGS. 6A-C. Impact of Pep-1 on hapten-induced LC maturation. (FIG. 6A) Epidermal cells isolated from BALB/c mice at 17 hr after topical application of 0.5% DNFB or vehicle alone were double-stained with FITC-conjugated anti-IA mAb and PE-conjugated anti-CD86 mAb. Data shown are representative two-color FACS profiles, documenting marked elevated surface expression of CD86 by IA^+ epidermal cells (i.e., LC) after DNFB application. (FIG. 6B) BALB/c mice received subcutaneous two local injections of Pep-1 or RP (40 μg/injection/ear) 24 and 3 hours before topical application of 0.5% DNFB and epidermal cells were isolated 17 hr later to examine the expression levels of CD86 on LC. […] (FIG. 6C) Graphical representation of the % CD86^+ cells/IA^+ LC from three independent experiments described in (FIG. 6B) with circles, triangles, and squares showing corresponding pairs in each experiment. Bars represent the mean values (n=3) and the asterisk indicates statistically significant difference between the Pep-1 and the RP panels (*p<0.03 by the Mann-Whitney U test).
# A critical question concerns the physiological significance of the above finding. Topical application of haptens is known to trigger not only LC migration from the epidermis, but also their maturation. […]
# HA = assay: Adhesion of 35S-labeled B16-F10 melanoma cells to HA-coated plates; type: cell-based, mouse
# Procedure: Three different Pep-1 derivatives were compared for their biological activities at the same concentration in terms of the molarity (150 μM) of the 16-mer Pep-1 peptide sequence. […] Data shown are the means+/−S.D. of % binding from quadruplicate samples. Asterisks indicate statistically significant differences (**p<0.01 by two-tailed Student's t-test).
# FIGS. 9A-G. DC-associated HA and DC-dependent T cell proliferation. (A) DO11.10 T cells were cultured with y-irradiated splenic DC and/or OVA323-339 (2 μg/ml) in the presence of intact bPG (250 μg/ml), heat-denatured bPG, or PBS alone. Data shown are the means+/−s.d. (n=3) of ^3H-thymidine uptake. (B) DO11.10 T cells were cultured with the indicated numbers of splenic DC and OVA323-339 in the presence of Pep-1 (300 μM) (open circles), RP (closed circles), or PBS alone (squares). (C) Pep-1 (open circles) or PEG-conjugated Pep-1 (open triangles) were compared at the indicated concentrations (in terms of the molarity of the 12-mer Pep-1 sequence) for their abilities to inhibit the adhesion of ^35S-labeled B16 melanoma cells onto the HA-coated plates (Mummert et al. J. Exp. Med. 192:769-779, 2000). […] Statistically significant differences assessed by a two-tailed Student's t-test for comparing two groups or by analysis of variance (ANOVA) followed by LSD for multiple comparisons are indicated by asterisks (*P<0.05, **P<0.01).
# [1] = test system: XS52 DC and HDK-1 T cells; assay: Cytokine secretion in XS52 DC / HDK-1 T cell / KLH co-culture (ELISA); type: cell-based; conditions: 500 μg/ml; dose-dependent
# Procedure: FIGS. 7A-C. Impact of tetrameric LIP on cytokine production during antigen presentation. (FIG. 7A) XS52 DC (0.2×10^6 cells/well) were cultured in the presence or absence of the KLH-reactive CD4^+ Thl clone HDK-1 (0.2×10^6 cells/well) and/or KLH (100 μg/ml). Culture supernatants collected at 24 hrs were examined for the indicated cytokines by ELISA. Data shown are the means+/−s.e.m. from triplicate samples. (FIG. 7B) XS52 DC and HDK-1 T cells were co-cultured with KLH in the presence of the indicated concentrations of Pep-1. Culture supernatants collected at 24 hrs were examined for the indicated cytokines by ELISA. (FIG. 7C) CD4^+ T cells isolated from DO11.10 transgenic mice (5×10^4 cells/well) were co-cultured with the indicated numbers of splenic DC isolated from BALB/c mice and the OVA peptide (2 μg/ml) in the presence of 500 μg/ml of Pep-1 (open circles), RP (triangles), or DMSO alone (closed circles). Co-cultures of CD4^+ T cells and DC in the absence of OVA peptide served as a control (square). All the cultures were examined for ^3H-thymidine uptake on Day 3. Data shown are the means+/−s.d. from triplicate samples.
# During antigen-specific interaction DC delivers activation signals to T cells, leading to differentiation and clonal expansion of antigen-reactive T cells. At the same time, T cells deliver signals back to DC, leading to “terminal maturation” of DC^80. To test the potential impact of Pep-1 on this bi-directional DC-T cell interaction, the present inventors employed a fully characterized in vitro experimental system in which XS52 DC are cultured with a KLH-reactive CD4^+ Th1 clone HDK-1 in the presence of antigen (KLH)^81-85.
sequence,measurement,setting,value
GAHWQFNALTVR [Pep-1],prevention of DNFB-induced LC maturation (CD86 up-regulation),Langerhans cells (LC),prevented this DNFB-induced LC maturation; also recorded: is prevented
same,blocking of B16-F10 adhesion to HA-coated plates,HA,blocked efficiently
same,inhibition of HA-mediated cell adhesion,HA; 150 μM in terms of molarity of the Pep-1 peptide sequence,only modest inhibition
same,inhibition of IL-6 secretion,[1],almost complete inhibition
same,inhibition of TNFα secretion,[1],almost complete inhibition
same,inhibition of interferon-γ secretion,[1],almost complete inhibition
